{"source": "patent US9376663B2", "about": "“GPR15-mediated homing and uses thereof” (New York University, priority 2013, dated 2016)", "key": {"[1]": {"system": "homing of T cells to the large intestine lamina propria (LILP)", "assay": "Short-term competitive homing assay", "type": "in vivo, mouse", "conditions": "GPR15+ cells treated before transfer, co-transfer with untreated control-transduced cells", "experimental": "The coding region of mouse GPR15 was cloned into the MSCV-IRES-Thy1.1 retroviral construct (38). Retroviruses were generated by transient transfection of Phoenix cells. CD4^+ CD62L^highCD44^lowCD25^− Tnaive cells were sorted by FACS Aria IIu (BD Biosciences) and stimulated with 0.25 μg/ml of αCD3ε (145-2c11, ATCC) and 1 μg/ml of αCD28 (37.51, eBiosciences) antibodies cross-linked by plate-bound α-hamster IgG (MP Biochemical) in RPMI-10. At day 1 and day 2 after stimulation, cells were transduced with retrovirus (spinning at 850 g for 2 h with 4 μg/ml of polybrene). CD4^+ Tnaive cells from B6. SJL-Ptprc^aPep3^b/BoyJ (The Jackson Laboratory) were used for transduction of Gpr15 and CD4^+ Tnaive cells from C57BL/6 were used for transduction of empty vector. At day 3, cells were washed and plated again only with 100 U/ml of IL-2. At day 5, live cells were harvested by lymphocyte-M (Cedarlane). The congenic cells were mixed at a 1:1 ratio and 20-30 million mixed cells in total were transferred intravenously into the recipient mice (C57BL/6). Migration of donor cells into each organ was determined at 10 h after transfer (unless specified) by flow cytometry analysis. All donor cells expressed THY1.1 and GPR15-expressing cells and control cells expressed CD45.1 and CD45.2, respectively. […]"}, "[2]": {"molecular_target": "T1, inducible caspase 9 (iCasp9) (Homo sapiens, UniProt P55211+P62942, F37V)", "T1 construct": "human caspase 9 (fusion partner in the same polypeptide)", "T1 sequence (P62942+P55211 fused P62942:F37V)": "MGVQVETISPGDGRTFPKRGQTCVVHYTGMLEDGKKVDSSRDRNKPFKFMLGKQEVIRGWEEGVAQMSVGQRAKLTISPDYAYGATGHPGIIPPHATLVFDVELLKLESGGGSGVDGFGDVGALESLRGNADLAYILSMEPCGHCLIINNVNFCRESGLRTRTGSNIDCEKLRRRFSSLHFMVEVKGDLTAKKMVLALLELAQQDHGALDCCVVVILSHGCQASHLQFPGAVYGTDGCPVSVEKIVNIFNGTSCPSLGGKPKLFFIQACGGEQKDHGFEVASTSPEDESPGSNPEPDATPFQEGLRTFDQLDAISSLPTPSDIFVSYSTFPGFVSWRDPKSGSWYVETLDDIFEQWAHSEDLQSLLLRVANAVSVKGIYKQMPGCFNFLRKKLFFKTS", "conditions": "patients wherein GVHD developed; cited from earlier work"}, "GPR15 expression": {"system": "GPR15 expression", "assay": "In vitro stimulation of T cells to examine GFP (GPR15 reporter) induction", "type": "cell-based, mouse", "conditions": "various concentration of retinoic acid with IL-2 only, 3 days, CD4+ Tnaive and Tregs from Gpr15gfp/+ Foxp3ires-mrfp mice", "experimental": "All T cell cultures were done in RPMI-10. CD4^+ Tnaive (CD62L^hiCD44^loCD25^−mRFP^− GFP^−), Tregs with naive phenotype (CD62L^hiCD44^loCD25^+mRFP^+ GFP^−), Tmemory (CD62L^loCD44^hiCD25^−mRFP^− GFP^−), and Tregs with memory phenotype (CD62L^loCD44^hiCD25^+mRFP^+ GFP^−) were sorted from Gpr15^gfp/+ Foxp3^ires-mrfp mice. Sorted cells were stimulated with 0.25 μg/ml αCD3ε (145-2c11, ATCC) and 1 μg/ml of αCD28 antibodies (37.51, eBiosciences) cross-linked by plate-bound α-hamster IgG in the presence of human IL-2 (100 U/ml) alone, or additionally with IL-21 (10 ng/ml, R&D systems) or IL-6 (20 ng/ml, Peprotech), or IL-27 (20 ng/ml, eBioscience) in the presence of varying concentrations of human TGF-β1 (αTGFβ blocking antibody [R&D systems], or 0, 0.5 ng/ml, or 5 ng/ml TGF-β1 [Peprotech]) for 3 days. The same conditions were used for retinoic acid (Sigma-Aldrich) treatment with IL-2 only."}}}
{"compound": "pertussis toxin", "values": [{"measurement": "enrichment of Gpr15-transduced cells in the LILP after treatment of the cells before transfer", "setting": "[1]", "value": "no longer enriched in the LILP"}]}
{"compound": "CC[C@H](C(=O)N1CCCC[C@H]1C(=O)O[C@H](CCc1ccc(OC)c(OC)c1)c1cccc(OCC(=O)NCCNC(=O)COc2cccc([C@@H](CCc3ccc(OC)c(OC)c3)OC(=O)[C@@H]3CCCCN3C(=O)[C@@H](CC)c3cc(OC)c(OC)c(OC)c3)c2)c1)c1cc(OC)c(OC)c(OC)c1", "note": "[AP1903]", "values": [{"measurement": "elimination of the transplanted genetically modified T cells", "setting": "[2]", "value": "greater than 90%"}]}
{"compound": "CC1=C(/C=C/C(C)=C/C=C/C(C)=C/C(=O)O)C(C)(C)CCC1", "note": "[Retinoic acid]", "values": [{"measurement": "GPR15 induction (GFP reporter)", "setting": "GPR15 expression", "value": "does not induce GPR15 expression"}, {"measurement": "GPR15 induction (GFP reporter)", "setting": "GPR15 expression; listed as RA", "value": "not induced"}]}
